According to ChEMBL document CHEMBL1759838, “Synthesis and SAR of acyclic HCV NS3 protease inhibitors with novel P4-benzoxaborole moieties” (Bioorg Med Chem Lett, 2011):

Legend:
[1] = Inhibition of Hepatitis C virus genotype 1a NS3/4A protease activity using Ac-DE-Dap(QXL520)-EE-Abu-w-[COO]-ASC(5-FAMsp)-NH2 peptide substrate by FRET assay; parameters: species or system Hepatitis C virus subtype 1a
Hepatitis C virus [2] = test: Antiviral activity against Hepatitis C virus genotype 1a by cell based assay; assay type: functional, organism-based, Hepacivirus hominis; conditions: subtype 1a
Hepatitis C virus [3] = test: Antiviral activity against Hepatitis C virus genotype 1b by cell based assay; assay type: functional, organism-based, Hepacivirus hominis
[4] = Lipophilicity, log D of the compound; assay type: physicochemical; conditions: octanol/water
[5] = Clearance in Sprague-Dawley rat at 1 mg/kg, iv; assay type: ADME, organism-based; parameters: dose 1 mg/kg, route intravenous; conditions: in vivo
[6] = AUC (0 to infinity) in Sprague-Dawley rat at 5 mg/kg, po; assay type: ADME, organism-based; parameters: dose 5 mg/kg, route oral, time infinity; conditions: plasma
[7] = Absorption in Sprague-Dawley rat at 5 mg/kg, po; assay type: ADME, organism-based; parameters: dose 5 mg/kg, route oral; conditions: in vivo, read-out: Activity
[8] = Oral bioavailability in Sprague-Dawley rat at 5 mg/kg, po; assay type: ADME, organism-based; conditions: in vivo
[9] = Inhibition of Hepatitis C virus genotype 1a NS3/4A protease activity using (Ac-DE-D(EDANS)-EE-Abu-w-[COO]-AS-K(DABCYL)-NH2 peptide substrate by FRET assay; parameters: species or system Hepatitis C virus subtype 1a

| SMILES | IC50 [1] [nM] | EC50 (Hepatitis C virus [2]) [nM] | EC50 (Hepatitis C virus [3]) [nM] | logD [4] | clearance [5] [mL/min/kg] | AUC(0-inf) [6] [ng·h/mL] | Fa [7] [%] | bioavailability [8] [%] | IC50 [9] [nM] |
| --- | --- | --- | --- | --- | --- | --- | --- | --- | --- |
| C=C[C@@H]1C[C@]1(NC(=O)[C@@H]1C[C@@H](Oc2ncc(OC)c3ccc(Cl)cc23)CN1C(=O)[C@@H](NC(=O)c1ccc2c(c1)B(O)OC2)C(C)(C)C)C(=O)NS(=O)(=O)C1CC1 | – | 290 | 91 | – | – | – | – | – | 4.6 |
| C=C[C@@H]1C[C@]1(NC(=O)[C@@H]1C[C@@H](Oc2ncc(OC)c3ccc(Cl)cc23)CN1C(=O)[C@@H](NC(=O)Nc1cccc2c1COB2O)C(C)(C)C)C(=O)NS(=O)(=O)C1CC1 | – | 500 | 81 | – | – | – | – | – | 4 |
| C=C[C@@H]1C[C@]1(NC(=O)[C@@H]1C[C@@H](Oc2ncc(OC)c3ccc(Cl)cc23)CN1C(=O)[C@@H](NC(=O)Nc1ccc2c(c1)B(O)OC2(C)C)C(C)(C)C)C(=O)NS(=O)(=O)C1CC1 | – | 280 | 130 | – | – | – | – | – | 26 |
| C=C[C@@H]1C[C@]1(NC(=O)[C@@H]1C[C@@H](OC(=O)N2Cc3cccc(F)c3C2)CN1C(=O)[C@@H](NC(=O)Nc1cc2c(cc1F)COB2O)C(C)(C)C)C(=O)NS(=O)(=O)C1CC1 | 1.1 | 360 | 56 | – | – | – | – | – | – |
| C=C[C@@H]1C[C@]1(NC(=O)[C@@H]1C[C@@H](Oc2ncc(OC)c3ccc(Cl)cc23)CN1C(=O)C(Nc1ccc2c(c1)B(O)OC2)C(C)(C)C)C(=O)NS(=O)(=O)C1CC1 (single isomer, unassigned; diastereomer 2) | – | – | – | – | – | – | – | – | 350 |

Second part, the compound after the results:

| IC50 [1] [nM] | EC50 (Hepatitis C virus [2]) [nM] | EC50 (Hepatitis C virus [3]) [nM] | logD [4] | clearance [5] [mL/min/kg] | AUC(0-inf) [6] [ng·h/mL] | Fa [7] [%] | bioavailability [8] [%] | IC50 [9] [nM] | SMILES |
| --- | --- | --- | --- | --- | --- | --- | --- | --- | --- |
| 1.3 | 170 | 23 | – | – | – | – | – | – | C=C[C@@H]1C[C@]1(NC(=O)[C@@H]1C[C@@H](Oc2ncc(OC)c3ccc(Cl)cc23)CN1C(=O)[C@@H](NC(=O)Oc1ccc2c(c1)B(O)OC2)C(C)(C)C)C(=O)NS(=O)(=O)C1CC1 |
| 2.2 | 160 | 24 | 4.5 | 7.93 | 41 | 0.92 | 0.42 | – | C=C[C@@H]1C[C@]1(NC(=O)[C@@H]1C[C@@H](Oc2ncc(OC)c3ccc(Cl)cc23)CN1C(=O)[C@@H](NC(=O)Nc1ccc2c(c1)B(O)OC2)C(C)(C)C)C(=O)NS(=O)(=O)C1CC1 |
| – | 130 | 25 | – | – | – | – | – | 2 | C=C[C@@H]1C[C@]1(NC(=O)[C@@H]1C[C@@H](Oc2ncc(OC)c3ccc(Cl)cc23)CN1C(=O)[C@@H](NC(=O)NCc1ccc2c(c1)B(O)OC2)C(C)(C)C)C(=O)NS(=O)(=O)C1CC1 |
| – | 65 | 38 | – | – | – | – | – | 16 | C=C[C@@H]1C[C@]1(NC(=O)[C@@H]1C[C@@H](Oc2ncc(OC)c3ccc(Cl)cc23)CN1C(=O)[C@@H](NC(=O)Nc1cccc2c1B(O)OC2)C(C)(C)C)C(=O)NS(=O)(=O)C1CC1 |
| 1.7 | 31 | 4.3 | – | – | – | – | – | – | C=C[C@@H]1C[C@]1(NC(=O)[C@@H]1C[C@@H](Oc2ncc(OC)c3ccc(Cl)cc23)CN1C(=O)[C@@H](NC(=O)Nc1cc2c(cc1F)COB2O)C(C)(C)C)C(=O)NS(=O)(=O)C1CC1 |
| – | 47 | 34 | – | – | – | – | – | 1.3 | C=C[C@@H]1C[C@]1(NC(=O)[C@@H]1C[C@@H](Oc2ncc(OC)c3ccc(Cl)cc23)CN1C(=O)[C@@H](NC(=O)Nc1cc2c(cc1Cl)COB2O)C(C)(C)C)C(=O)NS(=O)(=O)C1CC1 |
| – | 110 | 34 | 4 | 48.8 | 75 | 4.9 | 4.3 | 4.5 | C=C[C@@H]1C[C@]1(NC(=O)[C@@H]1C[C@@H](Oc2ncc(OC)c3ccc(Cl)cc23)CN1C(=O)[C@@H](Nc1ccc2c(c1)B(O)OC2)C(C)(C)C)C(=O)NS(=O)(=O)C1CC1 |
| – | 8.1 | 8.6 | – | – | – | – | – | 3.1 | C=C[C@@H]1C[C@]1(NC(=O)[C@@H]1C[C@@H](Oc2cc(-c3nc(C(C)C)cs3)nc3c(C)c(OC)ccc23)CN1C(=O)[C@@H](NC(=O)Nc1cc2c(cc1F)COB2O)C(C)(C)C)C(=O)NS(=O)(=O)C1CC1 |
